This experiment can be described thus: Inhibition of farnesyltransferase.

Compound `N#Cc1ccc(Cn2cncc2CN[C@@H]2CCN(c3ccccc3)C2=O)cc1` gave a pIC50 of 6.69.
Consider `N#Cc1ccc(Cn2cncc2CCN[C@@H]2CCN(c3ccccc3)C2=O)cc1`, for which the pIC50 was 6.92.
Consider `N#Cc1ccc(Cn2cncc2CCN[C@H]2CCN(CCc3ccccc3)C2=O)cc1`, for which the pIC50 was 6.61.
`N#Cc1ccc(Cn2cncc2CNC2CCN(C(=O)c3cncc(Br)c3)C2=O)cc1` (stereo not given) showed a pIC50 of 7.37.
Compound `N#Cc1ccc(Cn2cncc2CNC2CCN(c3ccccc3Cl)C2=O)cc1` (stereo not given) registered a pIC50 of 8.82.
As to `N#Cc1ccc(Cn2cncc2CNC2CCN(c3cccc(Cl)c3)C2=O)cc1` (stereo not given), the pIC50 worked out at 8.08.
With `N#Cc1ccc(Cn2cncc2CNC2CCN(c3ccc(Cl)cc3)C2=O)cc1` (stereo not given), the pIC50 is listed as 7.68.
`N#Cc1ccc(Cn2cncc2CNC2CCN(Cc3ccccc3Cl)C2=O)cc1` (stereo not given) showed a pIC50 of 8.28.
`N#Cc1ccc(Cn2cncc2CNC2CCN(Cc3ccc(Cl)cc3)C2=O)cc1` (stereo not given) had a pIC50 of 7.6.
`N#Cc1ccc(Cn2cncc2CNC2CCN(c3cccnc3)C2=O)cc1` (stereo not given) came in with a pIC50 of 7.07.
`N#Cc1ccc(Cn2cncc2CNC2CCN(c3ccncc3)C2=O)cc1` (stereo not given) came in with a pIC50 of 7.37.
The compound `N#Cc1ccc(Cn2cncc2CNC2CCN(C(=O)c3ccccc3)C2=O)cc1` (stereo not given) had a pIC50 of 6.96.
The compound `N#Cc1ccc(Cn2cncc2CNC2CCN(C(=O)c3cccc4ccccc34)C2=O)cc1` (stereo not given) returned a pIC50 of 7.96.
As to `N#Cc1ccc(Cn2cncc2CNC2CCN(C(=O)c3ccccc3Cl)C2=O)cc1` (stereo not given), the pIC50 was determined as 7.19.
On to `N#Cc1ccc(Cn2cncc2CNC2CCN(C(=O)c3cccc(Cl)c3)C2=O)cc1` (stereo not given), for which the pIC50 is recorded as 7.57.
Turning to `N#Cc1ccc(Cn2cncc2CNC2CCN(C(=O)c3ccc(Cl)cc3)C2=O)cc1` (stereo not given), the pIC50 is recorded as 7.05.
Compound `N#Cc1ccc(Cn2cncc2CNC2CCN(C(=O)c3cccnc3)C2=O)cc1` (stereo not given) yielded a pIC50 of 5.7.
With `N#Cc1ccc(Cn2cncc2CNC2CCN(C(=O)c3cccnc3N)C2=O)cc1` (stereo not given), the pIC50 was determined as 6.01.
Then `N#Cc1ccc(Cn2cncc2CNC2CCN(C(=O)c3cccnc3O)C2=O)cc1` (stereo not given), with 5.17; and `COc1ncccc1C(=O)N1CCC(NCc2cncn2Cc2ccc(C#N)cc2)C1=O` (stereo not given), with 6.82.
Then `N#Cc1ccc(Cn2cncc2CNC2CCN(C(=O)c3cccnc3S)C2=O)cc1` (stereo not given), with 5.54; and `CSc1ncccc1C(=O)N1CCC(NCc2cncn2Cc2ccc(C#N)cc2)C1=O` (stereo not given), with 7.08.
`CCSc1ncccc1C(=O)N1CCC(NCc2cncn2Cc2ccc(C#N)cc2)C1=O` (stereo not given) showed a pIC50 of 8.32.
Then `CCCN(Cc1cncn1Cc1ccc(C#N)cc1)C1CCN(Cc2ccccc2)C1=O` (stereo not given), with 7.23.
Consider `N#Cc1ccc(Cn2cncc2CN(Cc2ccccc2)C2CCN(Cc3ccccc3)C2=O)cc1` (stereo not given), for which the pIC50 is 7.17. The pIC50 values of the last two compounds are within 0.2 log units of each other.
The figure for `N#Cc1ccc(Cn2cncc2CN(CCc2ccccc2)C2CCN(Cc3ccccc3)C2=O)cc1` (stereo not given) is 7.29; for `N#Cc1ccc(Cn2cncc2CN(CCCCc2ccccc2)C2CCN(Cc3ccccc3)C2=O)cc1` (stereo not given) it is 7.38; for `N#Cc1ccc(Cn2cncc2CN(c2ccccn2)C2CCN(Cc3ccccc3)C2=O)cc1` (stereo not given) it is 7.28.
Then `CC(C)(C)OC(=O)NCCCN(Cc1cncn1Cc1ccc(C#N)cc1)C1CCN(Cc2cccc(Cl)c2)C1=O` (stereo not given), with 8.89; and `N#Cc1ccc(Cn2cncc2CCN[C@@H]2CCN(CCc3ccccc3)C2=O)cc1`, with 6.42.
Compound `N#Cc1ccc(Cn2cncc2CCN[C@H]2CCN(c3ccccc3)C2=O)cc1` displayed a pIC50 of 6.55.
The compound `N#Cc1ccc(Cn2cncc2CN[C@H]2CCN(CCc3ccccc3)C2=O)cc1` had a pIC50 of 6.63.
Take `N#Cc1ccc(Cn2cncc2CN[C@H]2CCN(c3ccccc3)C2=O)cc1`: the pIC50 is recorded as 7.13.
In turn, `N#Cc1ccc(Cn2cncc2CCN[C@@H]2CCN(Cc3ccccc3)C2=O)cc1` displayed a pIC50 of 6.6.
`N#Cc1ccc(Cn2cncc2CCN[C@H]2CCN(Cc3ccccc3)C2=O)cc1` yielded a pIC50 of 6.56.

For orientation: pIC50 means the IC50 on a negative log10 scale, so that one unit is a factor of ten. The low end stands for a high IC50, the high end for a low IC50.

These data come from ChEMBL document CHEMBL1795312, “Insights into the structural requirements of farnesyltransferase inhibitors as potential anti-tumor agents based on 3D-QSAR CoMFA and CoMSIA models” (Eur J Med Chem, 2008).
